Data taken from US20020137929A1, “1 - (3-heterocyclylphenyl) isothiourea, -isourea, -guanidine and -amidine herbicidal agents” (Intellectual Property Department, BASF Aktiengesellschaft, priority 1998, published 2002).

Columns and labels:
[1] = test system: CASOB (Sicklepod); test: Postemergence herbicidal evaluation; format: in vivo, Cassia obtusifolia
Procedure, shortened: (§1)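 ~2-wk seedlings; postemergence spray, 40 psi; vehicle 1:1 acetone:water + 0.5% Tween 20; rate ≈0.0156–0.500 kg/ha; greenhouse hold; scored 4–5 wk after treatment, 0–9 scale vs control; repeat tests averaged.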

[2] = test system: ORYSAT (Rice, Tebonnet); test: Preemergence herbicidal evaluation; format: in vivo, Oryza sativa, (L.) Tebonnet; details: rated 4-5 weeks after treatment
Procedure, shortened: (§2)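 Seeds were mixed with potting soil and planted on about one inch of soil, then sprayed with test compound in aqueous acetone at about 0.0156 to 0.500 kg per hectare. Plants grew under standard greenhouse care and were visually rated 0-9 against untreated controls 4-5 weeks post-treatment.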

[3] = test system: CYPIR (Rice Flatsedge); test: Preemergence weed control under flooded paddy conditions; format: in vivo, Cyperus iria; details: rated 3-4 weeks after treatment
Procedure, shortened: (§3)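 Seeds or propagules sown in top 0.5 cm of silt loam soil, flooded 1.5 to 3 cm above surface throughout. Compound in 50/50 v/v aqueous/acetone pipetted into flood water at about 0.0313 to 0.500 kg/ha. Visual 0-9 rating versus control after three to four weeks in greenhouse.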

[4] = test system: IPOHE (Morningglory, Ivyleaf); test: Preemergence herbicidal evaluation; format: in vivo, Ipomoea hederacea; details: rated 4-5 weeks after treatment
Procedure, shortened: as §2

[5] = test system: TRZAWR (Wheat, Winter, cv Riband); test: Preemergence herbicidal evaluation; format: in vivo, Triticum aestivum; details: rated 4-5 weeks after treatment
Procedure, shortened: as §2

[6] = test system: ECHORC (Watergrass (Calif.)); test: Postemergence weed control under flooded paddy conditions; format: in vivo, Echinochloa oryzoides; details: postemergence weeds, 3-4 weeks after treatment
Procedure, shortened: (§4)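 Containers holding 3–5 cm weeds and rice at 1.5–2.5 leaves are flooded to 1.5–3 cm above soil. Compound in 50/50 v/v aqueous/acetone is then added directly to the water, about 0.0313–0.500 kg/ha. Plants are kept in the greenhouse and rated 0–9 visually at 3–4 weeks.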

[7] = test system: ECHORC (Watergrass (Calif.)); test: Preemergence weed control under flooded paddy conditions; format: in vivo, Echinochloa oryzoides; details: rated 3-4 weeks after treatment
Procedure, shortened: as §3

[8] = test system: ZEAMX (Corn, Field); test: Postemergence herbicidal evaluation; format: in vivo, Zea mays
Procedure, shortened: as §1

[9] = test system: AMBEL (Ragweed, Common); test: Preemergence herbicidal evaluation; format: in vivo, Ambrosia artemisifolia; details: rated 4-5 weeks after treatment
Procedure, shortened: as §2

[10] = test system: CYPSE (Flatsedge); test: Preemergence weed control under flooded paddy conditions; format: in vivo, Cyperus serotinus; details: rated 3-4 weeks after treatment
Procedure, shortened: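 Flooded-pot preemergence screen with silt loam and seeds in the upper 0.5 cm. Dose about 0.0313 to 0.500 kg/ha, delivered into flood water; visual 0-9 score after 3 to 4 weeks.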

[11] = test system: CYPSE (Flatsedge); test: Postemergence weed control under flooded paddy conditions; format: in vivo, Cyperus serotinus; details: postemergence weeds, 3-4 weeks after treatment
Procedure, shortened: as §4

[12] = test system: ZEAMX (Corn, Field); test: Preemergence herbicidal evaluation; format: in vivo, Zea mays; details: rated 4-5 weeks after treatment
Procedure, shortened: as §2

[13] = test system: CHEAL (Lambsquarters, Common); test: Preemergence herbicidal evaluation; format: in vivo, Chenopodium album; details: rated 4-5 weeks after treatment
Procedure, shortened: as §2

[14] = test system: GALAP (Galium); test: Postemergence herbicidal evaluation; format: in vivo, Galium aparine
Procedure, shortened: as §1

With CCOC(=O)CN1C(=O)C[S+]([O-])/C1=N/c1cc(-n2c(=O)cc(C(F)(F)F)n(C)c2=O)c(F)cc1Cl (stereo not drawn) [Compound 45, 2-{{2-Chloro-5-[3,6-dihydro-3-methyl-2,6-dioxo-4-(trifluoromethyl)-1(2H)-pyrimidinyl]-4-fluoro-phenyl}imino}-4-oxo-3-thiazolidineacetic acid, ethyl ester, 1-oxide] the “Postemergence herbicidal rating CASOB” value ([1]; Rate 0.0156 kg/ha) was 0.0, the “Postemergence herbicidal rating CASOB” value ([1]; Rate 0.0313 kg/ha) was 0.0 and the “Postemergence herbicidal rating CASOB” value ([1]; Rate 0.0625 kg/ha) was 0.0. For the same compound, the “Preemergence herbicidal rating ORYSAT” value ([2]; rate 0.0156 kg/ha) was 0.0, the “Preemergence herbicidal rating ORYSAT” value ([2]; rate 0.0313 kg/ha) was 0.0 and the “Preemergence herbicidal rating ORYSAT” value ([2]; rate 0.0625 kg/ha) was 0.0. For the same compound, the “Preemergence herbicidal rating ORYSAT” value ([2]; rate 0.1250 kg/ha) was 0.0, the “Preemergence herbicidal rating ORYSAT” value ([2]; rate 0.2500 kg/ha) was 0.0 and the “Herbicidal rating CYPIR” value ([3]; 0.0313 kg/ha) was 0.0. For the same compound, the “Herbicidal rating CYPIR” value ([3]; 0.0625 kg/ha) was 3.0, the “Herbicidal rating CYPIR” value ([3]; 0.1250 kg/ha) was 7.0 and the “Herbicidal rating CYPIR” value ([3]; 0.2500 kg/ha) was 7.0. The “Preemergence herbicidal rating IPOHE” value ([4]; rate 0.0156 kg/ha) was 0.0, the “Preemergence herbicidal rating IPOHE” value ([4]; rate 0.0313 kg/ha) was 0.0 and the “Preemergence herbicidal rating IPOHE” value ([4]; rate 0.0625 kg/ha) was 0.0. The “Preemergence herbicidal rating IPOHE” value ([4]; rate 0.1250 kg/ha) was 0.0, the “Preemergence herbicidal rating IPOHE” value ([4]; rate 0.2500 kg/ha) was 1.0 and the “Preemergence herbicidal rating TRZAWR” value ([5]; rate 0.0156 kg/ha) was 0.0. The “Preemergence herbicidal rating TRZAWR” value ([5]; rate 0.0313 kg/ha) was 0.0, the “Preemergence herbicidal rating TRZAWR” value ([5]; rate 0.0625 kg/ha) was 0.0 and the “Preemergence herbicidal rating TRZAWR” value ([5]; rate 0.1250 kg/ha) was 2.0. For the same compound, the “Preemergence herbicidal rating TRZAWR” value ([5]; rate 0.2500 kg/ha) was 5.0, the “Herbicidal rating ECHORC” value ([6]; rate 0.0313 kg/ha) was 3.0 and the “Herbicidal rating ECHORC” value ([6]; rate 0.0625 kg/ha) was 4.0. For the same compound, the “Herbicidal rating ECHORC” value ([6]; rate 0.1250 kg/ha) was 7.0, the “Herbicidal rating ECHORC” value ([6]; rate 0.2500 kg/ha) was 7.0 and the “Herbicidal rating ECHORC” value ([7]; 0.0313 kg/ha) was 3.0. For the same compound, the “Herbicidal rating ECHORC” value ([7]; 0.0625 kg/ha) was 4.0, the “Herbicidal rating ECHORC” value ([7]; 0.1250 kg/ha) was 7.0 and the “Herbicidal rating ECHORC” value ([7]; 0.2500 kg/ha) was 7.0. The “Postemergence herbicidal rating ZEAMX” value ([8]; Rate 0.0156 kg/ha) was 4.5, the “Postemergence herbicidal rating ZEAMX” value ([8]; Rate 0.0313 kg/ha) was 5.0 and the “Postemergence herbicidal rating ZEAMX” value ([8]; Rate 0.0625 kg/ha) was 5.5. For the same compound, the “Preemergence herbicidal rating AMBEL” value ([9]; rate 0.0156 kg/ha) was 0.0, the “Preemergence herbicidal rating AMBEL” value ([9]; rate 0.0313 kg/ha) was 0.0 and the “Preemergence herbicidal rating AMBEL” value ([9]; rate 0.0625 kg/ha) was 0.0. For the same compound, the “Preemergence herbicidal rating AMBEL” value ([9]; rate 0.1250 kg/ha) was 0.0, the “Preemergence herbicidal rating AMBEL” value ([9]; rate 0.2500 kg/ha) was 2.0 and the “Herbicidal rating CYPSE” value ([10]; 0.0313 kg/ha) was 0.0. For the same compound, the “Herbicidal rating CYPSE” value ([10]; 0.0625 kg/ha) was 0.0, the “Herbicidal rating CYPSE” value ([10]; 0.2500 kg/ha) was 0.0 and the “Herbicidal rating CYPSE” value ([11]; rate 0.0313 kg/ha) was 0.0. For the same compound, the “Herbicidal rating CYPSE” value ([11]; rate 0.0625 kg/ha) was 0.0, the “Herbicidal rating CYPSE” value ([11]; rate 0.2500 kg/ha) was 0.0 and the “Preemergence herbicidal rating ZEAMX” value ([12]; rate 0.0156 kg/ha) was 0.0. For the same compound, the “Preemergence herbicidal rating ZEAMX” value ([12]; rate 0.0313 kg/ha) was 0.0, the “Preemergence herbicidal rating ZEAMX” value ([12]; rate 0.0625 kg/ha) was 0.0 and the “Preemergence herbicidal rating ZEAMX” value ([12]; rate 0.1250 kg/ha) was 2.0. For the same compound, the “Preemergence herbicidal rating ZEAMX” value ([12]; rate 0.2500 kg/ha) was 4.0, the “Preemergence herbicidal rating CHEAL” value ([13]; rate 0.0156 kg/ha) was 9.0 and the “Preemergence herbicidal rating CHEAL” value ([13]; rate 0.0313 kg/ha) was 9.0. The “Preemergence herbicidal rating CHEAL” value ([13]; rate 0.0625 kg/ha) was 9.0, the “Preemergence herbicidal rating CHEAL” value ([13]; rate 0.1250 kg/ha) was 9.0 and the “Preemergence herbicidal rating CHEAL” value ([13]; rate 0.2500 kg/ha) was 9.0. The “Postemergence herbicidal rating GALAP” value ([14]; Rate 0.0156 kg/ha) was 0.0, the “Postemergence herbicidal rating GALAP” value ([14]; Rate 0.0313 kg/ha) was 0.0 and the “Postemergence herbicidal rating GALAP” value ([14]; Rate 0.0625 kg/ha) was 0.0.
